One data set relates to LNCaP C4-2B. Nature of the data set: Antiproliferative activity against human LNCaP C4-2B cells incubated for 4 days by CCK8 assay. As to conditions: 96 h. (Formazan colour is commonly taken as a measure of viable cells.)
The next data set has as its system LNCaP. Description: Antiproliferative activity against human LNCaP cells incubated for 4 days by CCK8 assay. The note with it: 96 h.
In data set [1] the test system is CWR22R. Nature of the data set: Antiproliferative activity against human 22Rv1 cells incubated for 4 days by CCK8 assay. The note with it: 22Rv1, 96 h.
The target of data set [2] is T1, Nuclear receptor ROR-gamma (Homo sapiens, UniProt P51449).
T1 sequence (P51449 whole entry): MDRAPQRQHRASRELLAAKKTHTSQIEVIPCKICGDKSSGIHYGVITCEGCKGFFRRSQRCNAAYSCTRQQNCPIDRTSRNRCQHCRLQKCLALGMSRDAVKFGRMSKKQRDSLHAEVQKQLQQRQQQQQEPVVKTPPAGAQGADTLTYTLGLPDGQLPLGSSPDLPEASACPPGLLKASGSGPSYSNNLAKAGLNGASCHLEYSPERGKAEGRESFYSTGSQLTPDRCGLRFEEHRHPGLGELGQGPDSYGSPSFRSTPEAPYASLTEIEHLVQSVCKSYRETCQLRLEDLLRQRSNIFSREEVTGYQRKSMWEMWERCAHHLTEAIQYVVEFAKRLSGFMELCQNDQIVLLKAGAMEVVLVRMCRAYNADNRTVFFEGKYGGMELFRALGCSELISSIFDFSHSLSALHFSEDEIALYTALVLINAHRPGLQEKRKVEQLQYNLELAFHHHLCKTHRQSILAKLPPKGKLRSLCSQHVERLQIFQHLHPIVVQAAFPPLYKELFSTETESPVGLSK
Description: Inhibition of Gal4-fused RORgamma LBD (unknown origin) expressed in HEK293T cells incubated for 48 hrs by luciferase based assay. It counts as cell-based.

The nature of data set [3]: Metabolic stability in mouse liver microsomes assessed as half life at 0.1 uM preincubated for 10 mins followed by NADPH addition and measured upto 60 mins by LC-MS/MS analysis. It counts as ADME, Microsome. As to conditions: time < 70 min.
Data set [4] concerns CWR22R. Description: Antitumor activity against human 22Rv1 cells xenografted in NOD/SCID mouse assessed as tumor growth inhibition at 5 mg/kg, ip administered five times a week for 2 weeks and measured two times per week. It counts as functional. As to conditions: 22Rv1, 336 h, read-out: TGI. (Xenograft models place foreign cells or tissue in a host animal.)

Structures are written as SMILES.

By IC50 is commonly meant the point on the concentration scale where inhibition reaches its midpoint. Low readings indicate greater potency, high ones weaker potency. As for `CCC(=O)Nc1ccccc1-c1ccc(NC(=O)Cc2ccc(S(=O)(=O)CC)cc2)cc1Cl`, the IC50 in the data set with LNCaP C4-2B, in the data set with LNCaP and with CWR22R [1] was more than 10 µM in each case.

As for `C=CC(=O)Nc1ccccc1-c1ccc(NC(=O)c2ccc(OC)nc2)cc1C`, half-maximal inhibition in data set [2] (IC50) required 4.64 µM.

Consider `C=CC(=O)Nc1ccccc1-c1ccc(NS(=O)(=O)Cc2ccc([N+](=O)[O-])cc2)cc1C`, for which, in data set [2], the midpoint of inhibition, the IC50, lay at 6.61 µM.

For the compound `C=CC(=O)Nc1ccccc1-c1ccc(NC(=O)c2cccc(C#N)c2)cc1C`, the IC50 in data set [2] was more than 20 µM.

The compound `C=CC(=O)Nc1ccccc1-c1ccc(NC(=O)Cc2cccc(C#N)c2)cc1C` showed an IC50 in data set [2] of 2.02 µM.

Compound `CCC(=O)Nc1ccccc1-c1ccc(NC(=O)Cc2ccc(S(=O)(=O)CC)cc2)cc1C` had an IC50 in data set [2] of 2.98 µM.

Regarding `C=CC(=O)Nc1ccccc1-c1ccc(NC(=O)Cc2ccc(S(=O)(=O)CC)cc2)cc1`, in data set [2], 4.08 µM corresponded to half-maximal inhibition (IC50).

Take `C=CC(=O)Nc1ccccc1-c1ccc(NC(=O)Cc2ccc(S(=O)(=O)CC)cc2)cc1C(F)(F)F`: the IC50 with LNCaP C4-2B was 1.1 µM; with LNCaP, 1.77 µM; in data set [2], 2.17 µM; in the data set on CWR22R [1], 2.56 µM.

`C=CC(=O)Nc1ccccc1-c1ccc(NC(=O)Cc2ccc(C#N)cc2)cc1C` showed an IC50 in data set [2] of 2.32 µM.

As for `CCS(=O)(=O)c1ccc(CC(=O)Nc2ccc(-c3ccccc3NC(=O)CCl)c(C)c2)cc1`, in data set [2], it took 2 µM to reach half-maximal inhibition (IC50).

In the case of `C=CC(=O)Nc1ccccc1-c1ccc(NC(=O)Cc2ccc(S(C)(=O)=O)cc2)cc1C`, the IC50 in data set [2] came out at 1.23 µM.

As a reminder, the half-life is how long it takes for the measured level to halve. On to `C=CC(=O)Nc1ccccc1-c1c(Cl)cc(NC(=O)Cc2ccc(S(=O)(=O)CC)cc2)cc1Cl`, for which the IC50 turned out to be 0.29 µM in the data set on LNCaP C4-2B, 0.7 µM with LNCaP, 0.05 µM in data set [2] and 0.92 µM in the data set on CWR22R [1]. Also, the half-life at 0.1 µM in data set [3] worked out at 2.07 min.

`C=CC(=O)Nc1ccccc1-c1ccc(NC(=O)Cc2ccc(S(=O)(=O)CC)cc2)cc1C`: the IC50 in the data set on LNCaP C4-2B stood at 0.99 µM; in the data set on LNCaP, 0.92 µM; with CWR22R [1], 2.25 µM. The half-life at 0.1 µM in data set [3] is 10 min.

On to `C=CC(=O)Nc1ccccc1-c1ccc(NC(=O)Cc2ccc(S(=O)(=O)CC)cc2)cn1`, for which the IC50 in data set [2] came to 6.19 µM.

`C=CC(=O)Nc1ccccc1-c1ccc(NC(=O)c2cnc(C)nc2)cc1C` showed an IC50 in data set [2] of 2.58 µM.

The compound `C=C(C)C(=O)Nc1ccccc1-c1ccc(NC(=O)Cc2ccc(S(=O)(=O)CC)cc2)cc1C` returned a 50% inhibitory concentration (IC50) in data set [2] of 1.12 µM.

Take `C=CC(=O)Nc1ccccc1-c1ccc(NC(=O)c2ccc(S(C)(=O)=O)cn2)cc1C`: in data set [2], the IC50 worked out at 5.44 µM.

Take `C=CC(=O)Nc1ccccc1-c1ccc(NC(=O)c2ccc(S(C)(=O)=O)cc2)cc1C`: inhibition in data set [2] was half-maximal at 5.71 µM (IC50).

With `C=CC(=O)Nc1ccccc1-c1ccc(NC(=O)Cc2ccc(S(=O)(=O)CC)cc2)cc1F`, the IC50 in the data set on LNCaP C4-2B turned out to be 0.73 µM; with LNCaP, 0.53 µM; in data set [2] it was 1.1 µM; in the data set with CWR22R [1] it was 1.44 µM. In data set [3], the half-life at 0.1 µM worked out at 8.17 min.

As for `CCS(=O)(=O)c1ccc(CC(=O)Nc2cc(Cl)c(-c3ccccc3OC(F)(F)F)c(Cl)c2)cc1`, the inhibition in vivo at 5 mg/kg with CWR22R [4] was found to be 31.1%.

As to `C=CC(=O)Nc1ccccc1-c1ccc(NC(=O)Cc2ccccc2[N+](=O)[O-])cc1C`, half-maximal inhibition in data set [2] (IC50) was put at 3.04 µM.

`C/C=C/C(=O)Nc1ccccc1-c1ccc(NC(=O)Cc2ccc(S(=O)(=O)CC)cc2)cc1C` gave an IC50 in data set [2] of 1.63 µM.

The values are drawn from ChEMBL document CHEMBL5537185, “Discovery of the First-in-Class RORγ Covalent Inhibitors for Treatment of Castration-Resistant Prostate Cancer” (J Med Chem, 2024).
